Source: patent publication EP0454060B1, “3-(Mercaptoalkyl)-quinazoline-2,4(1H,3H)-diones, processes for their preparation, and pharmaceutical compositions” (priority 1990, dated 1991)

How the values were obtained:
[1] = tested on: Kontaktüberempfindlichkeit vom verzögerten Typ (Effektor-T-Lymphozyten-Aktivität); assay: Percutaneous test for contact hypersensitivity after DNFB immunisation; type: in vivo, Meerschweinchen (Albino-Koloniezucht); details: Sensibilisierungsgrad versus control group; 2 mg/kg daily peroral, day +1 to +6; screening values; from 120 stimulatory, below 80 suppressive
From the text: Der Nachweis einer immunregulatorischen Wirksamkeit wurde am Meerschweinchen (Albino-Koloniezucht) und u. a. mit Hilfe folgender Techniken geführt: • Perkutaner Test zum Nachweis einer Kontaktüberempfindlichkeit vom verzögerten Typ (Effektor-T-Lymphozyten-Aktivität), • Takatsy-Test zum Nachweis DNP-spezifischer Serumantikörper (humorale Immunantwort).
Der Nachweis der antiviralen Wirksamkeit erfolgte in vitro an Hühnerembryonalzellen mit Vertretern verschiedener Virusgruppen. 1. Untersuchungen zur immunregulatorischen Wirksamkeit 1.1 Perkutaner Test zum Nachweis einer Kontaktüberempfindlichkeit Die epikutane Applikation von Dinitrofluorbenzol (DNFB) führt beim Meerschweinchen und bei der Maus zur Entwicklung einer verzögerten Überempfindlichkeit, eines Immunstatus, der an die klonale Vermehrung TNP-spezifischer T-Lymphozyten (TDTH-Ly) gebunden ist. Erfolgt nach einer Latenzperiode von mindestens 5 Tagen eine erneute DNFB-Applikation, kommt es zu einer Freisetzung von Lymphokinen durch Reaktion mit den TDTH-Ly dieses Hautbereiches und dadurch zu einer lokal begrenzten Entzündungsreaktion. Sieben Tage nach der Immunisierung mit 1 %igem DNFB wurden die Flanken der Versuchstiere enthaart und durch Aufbringen je eines Tropfens 0,5 %, 0,1 %, 0,05 %, 0,025 % und 0,01 %iger DNFB-Lösung getestet. Die noch positive Konzentration ist dem Grad der Sensibilisierung umgekehrt proportional. Die Testergebnisse ergeben sich aus Stärke und Anzahl der positiven Hautreaktionen, der Stimulierungsindex (SI) aus dem Vergleich der Test- und Kontrolltiere. Die Substanzbehandlung erfolgte peroral. Mittels Schlundsonde wurde eine tägliche Dosis von 2 mg/kg Körpermasse als Suspension in Wasser gegeben. Behandlungsdauer: 1 Tag + 1 (ein Tag nach der Immunisierung) bis +6. Die Kontrolltiere erhielten nur die eingesetzte Lactose. 1.2 Takatsy-Test Nach Immunisierung mit Dinitrofluorbenzol (DNFB) kommt es beim Meerschweinchen auch zur Bildung DNP-spezifischer humoraler Antikörper, die bevorzugt der IgG1-Substanzklasse angehören. 14 Tage nach primärer epikutaner Applikation von DNFB wurde den Versuchstieren Blut durch Herzpunktion entnommen. Die Bestimmung der Antikörperkonzentration erfolgte nach einer von Takatsy beschriebenen Methode (Takatsy, G.: A new method for the preparation of serial dilutions in a quick and accurate way. Kiserletes Orvostudomany 2 (1950) 263 - 396). Als Indikatorzellen wurden TNP-beladene Schaferythrozyten verwendet (Kopplung nach Rittenberg und Pratt; Rittenberg, M. B. and Pratt, K. L.: Antitrinitrophenyl (TNP) plaque assay. Primary response of BALB/c mice to soluble and particulate immunogen. Proc. Soc. exp. Biol. Med., 132 (1969) 575 - 579). 1.3 Ergebnisse Sensibilisierungsgrad (%) und Serumantikörperkonzentration (AK-Titer-Differenz) gegenüber der jeweiligen Kontrollgruppe (Screening-Werte)
Aus den Werten wird deutlich, daß die Verbindungen der allgemeinen Formel I einen gut nachweisbaren Effekt auf die Effektor-T-Lymphozyten-abhängige verzögerte Uberempfindlichkeit haben. Kontaktdermatitis-Werte ab 120 (≙ 20 % Steigerung gegenüber der Kontrolle) bzw. unter 80 werden als Nachweis eines stimulatorischen bzw. suppressorischen Effektes angesehen. Antikörpertiter-Differenzen von >+1 bzw. <-1 verdeutlichen den stimulatorischen bzw. suppressorischen Effekt der Substanzen auf die humorale Immunantwort. 2. Untersuchungen zur immunstimulierenden Wirkung • 2.1 Plaque-Test zum Nachweis von SE-spezifischen IgM- und IgG-PBZ Zur Prüfung immunstimulierender Effekte wurde u. a. auch der Einfluß von Verbindungen der allgemeinen Formel I auf die humorale Immunantwort an Mäusen des Inzuchtstammes CBA und mittels Hämolyse-Plaque-Test (HPT) untersucht. Diese Technik erlaubt die quantitative und getrennte Erfassung IgM- und IgG-Antikörper produzierender Zellen (= Plaque bildende Zellen; PBZ). […]

[2] = tested on: SE-spezifischer rosettenbildender Zellen; assay: Rosette test (SE-specific rosettes); type: in vivo, Maus (Inzuchtstamm CBA); details: oral administration
From the text: Der Nachweis immunstimulierender Effekte wurde weiterhin an der Maus (Inzuchtstamm CBA) und u. a. mit Hilfe folgender Nachweismethoden geführt: • Plaque-Test zum Nachweis von SE-spezifischen IgM- und IgG-PBZ, • Rosettentest.
Aus den Werten wird deutlich, daß die Verbindungen der allgemeinen Formel I einen gut nachweisbaren Effekt auf die Effektor-T-Lymphozyten-abhängige verzögerte Uberempfindlichkeit haben. Kontaktdermatitis-Werte ab 120 (≙ 20 % Steigerung gegenüber der Kontrolle) bzw. unter 80 werden als Nachweis eines stimulatorischen bzw. suppressorischen Effektes angesehen. Antikörpertiter-Differenzen von >+1 bzw. <-1 verdeutlichen den stimulatorischen bzw. suppressorischen Effekt der Substanzen auf die humorale Immunantwort. 2. Untersuchungen zur immunstimulierenden Wirkung • 2.1 Plaque-Test zum Nachweis von SE-spezifischen IgM- und IgG-PBZ Zur Prüfung immunstimulierender Effekte wurde u. a. auch der Einfluß von Verbindungen der allgemeinen Formel I auf die humorale Immunantwort an Mäusen des Inzuchtstammes CBA und mittels Hämolyse-Plaque-Test (HPT) untersucht. Diese Technik erlaubt die quantitative und getrennte Erfassung IgM- und IgG-Antikörper produzierender Zellen (= Plaque bildende Zellen; PBZ). Die Immunisierung mit Schaferythrozyten (SE) erfolgte am Tag 0, die Substanzapplikation (Tagesdosis 1.10^-5 mol/kg Körpermasse; peroral) an den Tagen -1 bis +3 (zur Erfassung der IgM-PBZ) bzw. an den Tagen +1 bis +5 (zur Erfassung der IgG-PBZ). • 2.2 Ergebnisse: Durch tägliche und über 5 Tage gehende Gabe von 2,0 mg der Verbindung gemäß Beispiel 1 pro kg Körpermasse konnte die Zahl der IgM-PBZ auf einen Durchschnittswert von 352 % im Vergleich zur Kontrolle (100 %) gesteigert werden. Die gleiche Form der Behandlung führte zu einer Erhöhung der IgG-PBZ auf 497 % (Kontrolle: 100 %). In beiden Fällen erwies sich die Differenz zur Kontrolle im t-Test mit p < 0,001 als signifikant. […]

O=c1[nH]c2ccc(F)cc2c(=O)n1CCCS [Beispiel 14d, 6-Fluor-3-(3-mercaptopropyl)-chinazolin-2,4(1H,3H)-dion]
Kontaktdermatitis (Kontrolle: 100) 24-Stunden-Reaktion [1]: 100%
Kontaktdermatitis (Kontrolle: 100) 48-Stunden-Reaktion [1]: 150%

O=c1[nH]c2ccc(Br)cc2c(=O)n1CCCS [Beispiel 14b, 6-Brom-3-(3-mercaptopropyl)-chinazolin-2 4(1H 3H)-dion]
Kontaktdermatitis (Kontrolle: 100) 24-Stunden-Reaktion [1]: 105%
Kontaktdermatitis (Kontrolle: 100) 48-Stunden-Reaktion [1]: 100%

O=c1[nH]c2ccc(Cl)cc2c(=O)n1CCCS [Beispiel 8, 6-Chlor-3-(3-mercaptopropyl)-chinazolin-2,4(1H,3H)-dion]
Kontaktdermatitis (Kontrolle: 100) 24-Stunden-Reaktion [1]: 100%
Kontaktdermatitis (Kontrolle: 100) 48-Stunden-Reaktion [1]: 115%

COc1cc2[nH]c(=O)n(CCS)c(=O)c2cc1OC [Beispiel 3, 3-(2-Mercaptoethyl)-6,7-dimethoxychinazolin-2,4(1H,3H)-dion]
Kontaktdermatitis (Kontrolle: 100) 24-Stunden-Reaktion [1]: 100%

Cc1ccc2[nH]c(=O)n(CCS)c(=O)c2c1 [Beispiel 14a, 6-Methyl-3-(2-mercaptoethyl)-chinazolin-2,4(1H,3H)-dion]
Kontaktdermatitis (Kontrolle: 100) 24-Stunden-Reaktion [1]: 60%
Kontaktdermatitis (Kontrolle: 100) 48-Stunden-Reaktion [1]: 60%

Cc1ccc2[nH]c(=O)n(CCCS)c(=O)c2c1 [Beispiel 12, 6-Methyl-3-(3-mercaptopropyl)-chinazolin-2,4(1H,3H)-dion]
Kontaktdermatitis (Kontrolle: 100) 24-Stunden-Reaktion [1]: 120%
Kontaktdermatitis (Kontrolle: 100) 48-Stunden-Reaktion [1]: 130%

CC(S)Cn1c(=O)[nH]c2ccccc2c1=O (centres unmarked) [Beispiel 7, 3-(2-Mercaptopropyl)-chinazolin-2,4(1H,3H)-dion]
Kontaktdermatitis (Kontrolle: 100) 24-Stunden-Reaktion [1]: 230%

O=c1[nH]c2ccc(F)cc2c(=O)n1CCS [Beispiel 14c, 6-Fluor-3-(2-mercaptoethyl)-chinazolin-2,4(1H 3H)-dion]
Kontaktdermatitis (Kontrolle: 100) 24-Stunden-Reaktion [1]: 90%
Kontaktdermatitis (Kontrolle: 100) 48-Stunden-Reaktion [1]: 105%

O=c1[nH]c2ccc(Cl)cc2c(=O)n1CCS [Beispiel 13, 6-Chlor-3-(2-mercaptoethyl)-chinazolin-2,4(1H,3H)-dion]
Kontaktdermatitis (Kontrolle: 100) 24-Stunden-Reaktion [1]: 120%
Kontaktdermatitis (Kontrolle: 100) 48-Stunden-Reaktion [1]: 130%

COc1cc2[nH]c(=O)n(CC(C)S)c(=O)c2cc1OC (centres unmarked) [Beispiel 14e, 6,7-Dimethoxy-3-(2-mercaptopropyl)-chinazolin-2,4(1H,3H)-dion]
Kontaktdermatitis (Kontrolle: 100) 24-Stunden-Reaktion [1]: 100%
SE-spezifischer rosettenbildender Zellen [2]: signifikante Förderung

O=c1[nH]c2ccc(Br)cc2c(=O)n1CCS [Beispiel 5, 6-Brom-3-(2-mercaptoethyl)-chinazolin-2,4(1H,3H)-dion]
Kontaktdermatitis (Kontrolle: 100) 24-Stunden-Reaktion [1]: 150%
Kontaktdermatitis (Kontrolle: 100) 48-Stunden-Reaktion [1]: 120%

O=c1[nH]c2ccccc2c(=O)n1CCCS [Beispiel 6, 3-(3-Mercaptopropyl)-chinazolin-2,4(1H,3H)-dion]
Kontaktdermatitis (Kontrolle: 100) 24-Stunden-Reaktion [1]: 70%
Kontaktdermatitis (Kontrolle: 100) 48-Stunden-Reaktion [1]: 40%
SE-spezifischer rosettenbildender Zellen [2]: signifikante Förderung
